Laboratory results taken from ChEMBL document CHEMBL1157802, “5-Functionalized indazoles as glucocorticoid receptor agonists” (Bioorg Med Chem Lett, 2010).
pIC50: −log10 of the molar value.

Tests used:
[1] = Inhibition of calcium channel L type dihydropyridine binding site at 1 uM
[2] = biological target: Voltage-gated inwardly rectifying potassium channel KCNH2 (Homo sapiens, UniProt Q12809); assay: Inhibition of human ERG by patch clamp method
[3] = Selectivity for human glucocorticoid receptor over progesterone receptor
[4] = biological target: T1, Muscarinic acetylcholine receptor M2 (Homo sapiens) (UniProt P08172); assay: Inhibition of muscarinic M2 receptor at 1 uM
T1 sequence (whole entry): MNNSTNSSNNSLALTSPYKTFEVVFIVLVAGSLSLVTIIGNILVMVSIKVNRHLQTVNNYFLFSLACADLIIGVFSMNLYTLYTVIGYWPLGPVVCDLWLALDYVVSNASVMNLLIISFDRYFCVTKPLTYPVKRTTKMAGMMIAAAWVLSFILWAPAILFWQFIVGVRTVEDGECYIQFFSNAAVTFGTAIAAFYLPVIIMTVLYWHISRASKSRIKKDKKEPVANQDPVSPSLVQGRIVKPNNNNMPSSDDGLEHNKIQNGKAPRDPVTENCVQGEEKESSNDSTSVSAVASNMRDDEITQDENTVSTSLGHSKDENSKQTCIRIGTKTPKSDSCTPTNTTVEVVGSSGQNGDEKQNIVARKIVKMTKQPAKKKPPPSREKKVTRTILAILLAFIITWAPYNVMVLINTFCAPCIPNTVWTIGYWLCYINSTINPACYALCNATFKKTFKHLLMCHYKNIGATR

[5] = biological target: T2, Alpha-1A adrenergic receptor (Homo sapiens) (UniProt P35348); assay: Inhibition of adrenergic alpha1A receptor at 1 uM
T2 sequence (whole entry): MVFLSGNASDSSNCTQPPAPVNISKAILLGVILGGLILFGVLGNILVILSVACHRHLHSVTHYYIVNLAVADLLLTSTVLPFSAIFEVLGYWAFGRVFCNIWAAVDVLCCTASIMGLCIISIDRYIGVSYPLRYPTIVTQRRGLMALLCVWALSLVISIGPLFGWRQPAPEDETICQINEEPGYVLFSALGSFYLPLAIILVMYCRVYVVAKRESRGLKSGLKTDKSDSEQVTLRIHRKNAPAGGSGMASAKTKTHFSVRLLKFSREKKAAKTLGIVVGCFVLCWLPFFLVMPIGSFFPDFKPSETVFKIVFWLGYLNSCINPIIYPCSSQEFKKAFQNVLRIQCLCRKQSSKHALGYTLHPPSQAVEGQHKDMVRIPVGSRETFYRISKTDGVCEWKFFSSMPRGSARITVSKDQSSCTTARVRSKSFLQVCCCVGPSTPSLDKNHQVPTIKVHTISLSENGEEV

[6] = Inhibition of central imidazoline I2 receptor at 1 uM
[7] = Inhibition of phencyclidine receptor at 1 uM
[8] = Inhibition of sigma 2 receptor at 1 uM
[9] = biological target: Histamine H1 receptor (Homo sapiens) (UniProt P35367); assay: Inhibition of histamine H1 receptor at 1 uM
Sequence of Histamine H1 receptor (Homo sapiens) (P35367 whole entry): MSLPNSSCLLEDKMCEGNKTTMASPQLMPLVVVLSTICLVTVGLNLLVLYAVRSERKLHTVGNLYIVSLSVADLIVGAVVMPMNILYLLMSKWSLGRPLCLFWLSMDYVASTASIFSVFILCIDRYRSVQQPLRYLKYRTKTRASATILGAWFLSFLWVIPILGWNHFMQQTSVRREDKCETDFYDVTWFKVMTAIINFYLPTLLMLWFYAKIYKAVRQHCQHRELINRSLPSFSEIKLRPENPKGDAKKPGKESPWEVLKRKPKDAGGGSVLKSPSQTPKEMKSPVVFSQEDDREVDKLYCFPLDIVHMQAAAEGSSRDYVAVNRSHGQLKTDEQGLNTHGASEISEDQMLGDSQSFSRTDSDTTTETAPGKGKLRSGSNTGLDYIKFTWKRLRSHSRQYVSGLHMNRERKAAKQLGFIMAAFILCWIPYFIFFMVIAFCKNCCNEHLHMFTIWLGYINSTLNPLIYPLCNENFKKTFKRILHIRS

[10] = biological target: T3, Alpha-1B adrenergic receptor (Homo sapiens) (UniProt P35368); assay: Inhibition of adrenergic Alpha-1B receptor at 1 uM
T3 sequence (whole entry): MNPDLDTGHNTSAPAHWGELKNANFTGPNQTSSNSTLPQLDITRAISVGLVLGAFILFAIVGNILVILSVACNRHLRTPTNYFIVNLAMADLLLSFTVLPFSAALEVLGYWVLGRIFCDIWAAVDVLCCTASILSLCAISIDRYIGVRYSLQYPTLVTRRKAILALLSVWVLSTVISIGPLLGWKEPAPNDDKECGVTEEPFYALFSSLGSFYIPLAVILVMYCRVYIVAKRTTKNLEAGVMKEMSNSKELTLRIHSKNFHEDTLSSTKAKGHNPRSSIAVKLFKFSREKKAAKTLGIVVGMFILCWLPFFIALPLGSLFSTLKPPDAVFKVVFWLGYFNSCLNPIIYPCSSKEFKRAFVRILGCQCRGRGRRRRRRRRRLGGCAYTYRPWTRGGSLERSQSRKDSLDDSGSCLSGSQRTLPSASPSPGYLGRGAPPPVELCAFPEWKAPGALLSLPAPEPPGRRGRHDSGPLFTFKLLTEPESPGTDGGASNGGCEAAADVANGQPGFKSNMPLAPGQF

[11] = biological target: D(2) dopamine receptor (Homo sapiens) (UniProt P14416); assay: Inhibition of dopamine D2S receptor at 1 uM
Sequence of D(2) dopamine receptor (Homo sapiens) (P14416 whole entry): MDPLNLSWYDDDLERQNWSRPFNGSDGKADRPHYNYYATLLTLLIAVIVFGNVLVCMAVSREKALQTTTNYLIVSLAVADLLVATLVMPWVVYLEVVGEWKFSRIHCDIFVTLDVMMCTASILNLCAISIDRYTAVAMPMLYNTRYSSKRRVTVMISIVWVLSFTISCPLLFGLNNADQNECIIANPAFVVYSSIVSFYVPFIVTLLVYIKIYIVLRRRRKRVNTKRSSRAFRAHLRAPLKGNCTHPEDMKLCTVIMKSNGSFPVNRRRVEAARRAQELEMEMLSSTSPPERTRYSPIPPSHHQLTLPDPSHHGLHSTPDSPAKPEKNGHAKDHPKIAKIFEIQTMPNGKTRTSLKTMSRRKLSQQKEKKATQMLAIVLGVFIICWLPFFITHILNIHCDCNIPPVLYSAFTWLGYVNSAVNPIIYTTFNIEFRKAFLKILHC

[12] = Inhibition of nicotinic bungarotoxin-sensitive acetylcholine receptor at 1 uM
[13] = Inhibition of NMDA receptor at 1 uM
[14] = Inhibition of central benzodiazepine receptor at 1 uM

Sequence of Voltage-gated inwardly rectifying potassium channel KCNH2 (Q12809 whole entry): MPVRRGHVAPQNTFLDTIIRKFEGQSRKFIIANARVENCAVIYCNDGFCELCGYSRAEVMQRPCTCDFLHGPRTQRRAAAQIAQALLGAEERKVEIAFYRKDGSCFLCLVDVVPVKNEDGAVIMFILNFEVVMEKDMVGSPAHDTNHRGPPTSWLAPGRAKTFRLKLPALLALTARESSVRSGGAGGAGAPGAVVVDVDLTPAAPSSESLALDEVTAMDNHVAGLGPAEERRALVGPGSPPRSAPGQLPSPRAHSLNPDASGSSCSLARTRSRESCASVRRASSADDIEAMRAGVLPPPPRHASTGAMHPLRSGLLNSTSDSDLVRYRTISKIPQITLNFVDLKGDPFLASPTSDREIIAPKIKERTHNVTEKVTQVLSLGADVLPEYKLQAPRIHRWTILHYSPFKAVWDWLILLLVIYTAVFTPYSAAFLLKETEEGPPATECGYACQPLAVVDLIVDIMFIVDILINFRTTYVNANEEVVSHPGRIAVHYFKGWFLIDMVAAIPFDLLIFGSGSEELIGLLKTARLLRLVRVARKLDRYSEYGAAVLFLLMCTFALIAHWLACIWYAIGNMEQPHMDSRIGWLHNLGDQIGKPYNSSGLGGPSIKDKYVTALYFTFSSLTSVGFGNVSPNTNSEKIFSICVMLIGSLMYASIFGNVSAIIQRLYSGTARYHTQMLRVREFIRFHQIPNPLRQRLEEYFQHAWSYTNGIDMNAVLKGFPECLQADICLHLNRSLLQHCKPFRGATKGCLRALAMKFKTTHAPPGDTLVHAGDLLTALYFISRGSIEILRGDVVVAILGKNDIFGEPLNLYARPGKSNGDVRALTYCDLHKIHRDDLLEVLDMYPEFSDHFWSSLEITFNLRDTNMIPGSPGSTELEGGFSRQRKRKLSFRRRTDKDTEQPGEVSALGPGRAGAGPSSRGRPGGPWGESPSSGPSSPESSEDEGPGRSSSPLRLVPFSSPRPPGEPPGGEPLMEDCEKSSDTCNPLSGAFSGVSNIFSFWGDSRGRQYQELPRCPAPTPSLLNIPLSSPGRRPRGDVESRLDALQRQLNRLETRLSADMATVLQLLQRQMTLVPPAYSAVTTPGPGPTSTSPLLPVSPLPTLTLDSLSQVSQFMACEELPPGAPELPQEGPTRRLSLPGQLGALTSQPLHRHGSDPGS

| Compound | inhibition [1] | pIC50 [2] | Ratio [3] | inhibition [4] | inhibition [5] | inhibition [6] | inhibition [7] | inhibition [8] | inhibition [9] | inhibition [10] | inhibition [11] | inhibition [12] | inhibition [13] | inhibition [14] |
| --- | --- | --- | --- | --- | --- | --- | --- | --- | --- | --- | --- | --- | --- | --- |
| OC(c1ccnc(Cl)c1)(c1ccc2c(cnn2-c2ccc(F)cc2)c1)C(F)(F)F (single isomer, unassigned; (-)) | < 50% | < 5.00 | > 1000 | < 50% | < 50% | < 50% | < 50% | < 50% | < 50% | < 50% | < 50% | < 50% | < 50% | < 50% |
| Cc1cc(C(O)(c2ccc3c(cnn3-c3ccc(F)cc3)c2)C(F)(F)F)ccc1F (single isomer, unassigned; (-)) | < 50% | < 5.00 | > 1000 | < 50% | < 50% | < 50% | < 50% | < 50% | < 50% | < 50% | < 50% | < 50% | < 50% | < 50% |
